In patent US20120172351A1, “NOVEL FUSED CYCLIC COMPOUND AND USE THEREOF” (priority 2009, published 2012):
Where a name gives a salt, the structure may show the parent alone.

Columns and labels:
[1] = biological target: T1, human derived GPR40 (Homo sapiens, UniProt O14842); assay: Agonist action on human derived GPR40: change of intracellular calcium concentration in CHO cells (FLIPRtetra); assay type: cell-based; settings: agonist activity of compound at 1 μM, relative to 10 μM γ linolenic acid as 100%, wave peak height; CHO cells stably expressing human GPR40
T1 construct: expressed in transfected cells
T1 sequence (O14842 whole entry): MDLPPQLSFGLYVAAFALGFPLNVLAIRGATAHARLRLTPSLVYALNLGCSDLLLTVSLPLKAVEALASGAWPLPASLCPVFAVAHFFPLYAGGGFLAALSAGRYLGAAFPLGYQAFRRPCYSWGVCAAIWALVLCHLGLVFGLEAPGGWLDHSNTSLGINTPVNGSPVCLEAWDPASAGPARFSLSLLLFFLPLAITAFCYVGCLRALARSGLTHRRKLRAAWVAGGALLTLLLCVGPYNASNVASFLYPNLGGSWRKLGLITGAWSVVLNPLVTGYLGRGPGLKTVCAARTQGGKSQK
Method: The CHO cell lines that stably expressed human derived GPR40 were used for the determination of the agonist activity. Unless particularly specified, the CHO cell lines were cultured in an α-MEM medium (Wako Pure Chemical Industries, Ltd.) containing 10% dialyzed fetal bovine serum (TRA Thermo Electron).
The cells cultured almost to confluent on the day before assay were rinsed with PBS (Invitrogen), detached with 0.5 mM EDTA (Wako Pure Chemical Industries, Ltd.), and recovered by centrifugation. The obtained cells were counted, diluted to 2×10^5 cells per 1 mL medium, dispensed by 40 μL per well to a 384 well black clear bottomplate (PE Biosystems), and cultured overnight in a CO2 incubator. Various test compounds were added to CHO cells prepared as mentioned above, and change of intracellular calcium concentration was measured using FLIPRtetra (Molecular Device). For the measurement by this device, a Calcium 4 assay kit (Molecular Devices: R8142) was used.
First, fatty acid free BSA at the final concentration of 0.1% was added to the buffer attached to the kit to prepare an assay buffer. Using the assay buffer, a loading solution with Fluo4 was prepared such that the final concentration of fatty acid free BSA was 0.1% and the final concentration of probenecid was 625 μM. On the other hand, a test compound was diluted with the assay buffer to a given concentration, and dispensed to the polypropylene 384-well plate (sample plate). The medium was removed from the cell culture plate, and the loading solution with Fluo4 was dispensed by 25 μL. After culture in a CO2 incubator at 37° C. for 40 min, a sample plate and a cell plate were simultaneously set on the FLIPRtetra, various test compounds were added by 25 μL according to the program of the device, and change of intracellular calcium concentration was measured. The agonist activity of each compound at 1 μM was calculated as a relative activity value to the activity of 10 μM γ linolenic acid as 100% from the wave peak height.

Cc1nc(N2CCOCC2)nc(C)c1-c1cccc(CNc2ccc3c(c2)OC[C@H]3CC(=O)O)c1C (as salt: salt) [Example 242, 1,3-dihydroxy-2-(hydroxymethyl)propan-2-aminium [(3S)-6-({3[4,6-dimethyl-2-(morpholin-4-yl)pyrimidin-5-yl]-2-methylbenzyl}amino)-2,3-dihydro-1-benzofuran-3-yl]acetate]
melting point: 154 °C

Cc1cc(OC[C@@H]2CCC(=O)N2)cc(C)c1-c1cccc2c1OC[C@H]2Nc1ccc2c(c1)OC[C@H]2CC(=O)O [Example 8, [(3S)-6-{[(3S)-7-(2,6-dimethyl-4-{[(2S)-5-oxopyrrolidin-2-yl]methoxy}phenyl)-2,3-dihydro-1-benzofuran-3-yl]amino}-2,3-dihydro-1-benzofuran-3-yl]acetic acid]
activity (%) [1]: 131% | melting point: 161 °C

Cc1nc(N2CCOCC2)nc(C)c1-c1cccc2c1OC[C@H]2Nc1ccc2c(c1)OC[C@H]2CC(=O)O [Example 77, [(3S)-6-({(3S)-7-[4,6-dimethyl-2-(morpholin-4-yl)pyrimidin-5-yl]-2,3-dihydro-1-benzofuran-3-yl}amino)-2,3-dihydro-1-benzofuran-3-yl]acetic acid]
melting point: 168 °C

Cc1nc(N2CCCC2)nc(C)c1-c1cccc2c1OC[C@H]2Nc1ccc2c(c1)OC[C@H]2CC(=O)O [Example 79, [(3S)-6-({(3S)-7-[4,6-dimethyl-2-(pyrrolidin-1-yl)pyrimidin-5-yl]-2,3-dihydro-1-benzofuran-3-yl}amino)-2,3-dihydro-1-benzofuran-3-yl]acetic acid]
activity (%) [1]: 126% | melting point: 169 °C

CCCN(c1cc(C)ccn1)c1cccc2c1OC[C@H]2Nc1ccc2c(c1)OC[C@H]2CC(=O)O [Example 82, [(3S)-6-({(3S)-7-[(4-methylpyridin-2-yl)(propyl)amino]-2,3-dihydro-1-benzofuran-3-yl}amino)-2,3-dihydro-1-benzofuran-3-yl]acetic acid]
activity (%) [1]: 129% | melting point: 146 °C
